Measurements: patent US20250302967A1, “PEPTIDE FORMULATIONS AND USES THEREOF” (Amytrx Therapeutics, Inc., priority 2022, published 2025)
Positions of bridges follow the written chain, without caps; N, C: chain ends. Residues, ends and D or L forms follow the SMILES beside them.

How the values were obtained:
[1] = PK/biodistribution following single topical dose: whole blood and plasma radioactivity; type: in vivo, male albino rats; parameters: Non-plasma compartment: unit not given beside the values; settings: rat; for Concentration of radioactivity in recovered white blood cells: reverse wash of filters
Procedure: Whole blood and plasma radioactivity analysis, quantitative whole-body autoradiography (QWBA), and micro-autoradiography (mARG) studies are performed following a single topical dose administration to male rats. Formulation 1, Formulation 2, or Formulation 3, where Compound 1 is 3H-Compound 1, are applied in a single topical dose at a target dose of 5 mg/kg to six male albino rats.
An additional three male albino rats received a single topical appropriate amount of CETAPHIL (R) applied to the dose site approximately 1 hour prior to application of ^3H-Compound 1 in a single topical dose at a target dose of 5 mg/kg. An individual rat receiving the emollient pre-treatment was used for a single time-point of 2 hours, 8 hours, and 48 hours.

[2] = 7-day repeat dose tolerance dermal study in Gottingen Mini-Pigs (non-GLP); type: in vivo
Text: The purpose of this study was to evaluate the dermal dose tolerance at the maximum feasible dose (concentration and application rate) of Compound 1 in Formulation 1, Formulation 2, or Formulation 3 of Table 2, including placebo (F1, F2, or F3 without Compound 1) when applied by topical dermal application to Gottingen Mini-Pigs twice daily for seven days.
Three experimentally naive male Gottingen Mini-Pigs, 4-5 months old and weighing 10.6-13.8 kilograms at the outset of the study had four dose sites (100 cm^2 per site) numbered 1, 2, 3, and 4. The dose sites were not rotated.
Animals were dosed with all formulations twice daily (two doses per site per day; 6 hours+/−30 minutes between the first and second dose for 7 days). Mortality/morbidity was performed twice daily and once on the day of scheduled euthanasia. On Days 1-7 animals were observed prior to dosing and at 1-2 hours post-dose. A final observation was recorded on Day 8 prior to scheduled euthanasia. Body weights were recorded on Days 1 and 7. Food consumption was determined daily. Blood for toxicokinetic evaluation was collected on Days 1 and 7 at 0.5, 1, 2, 4, 6, 8 and 24 hours post-dose. […] Animals were sacrificed on Day 8 and a gross necropsy was performed. The dosing area (skin) was collected and preserved.

[3] = tested on: Phorbol Myristoyl Acetate (PMA)-induced skin inflammation; type: in vivo; settings: mouse
Text: The anti-inflammatory efficacy of Compound 1 on a Phorbol Myristoyl Acetate (PMA)-induced skin inflammatory mouse model (irritant contact dermatitis) is shown following topical application of a formulation including Compound 1 herein.

[4] = tested on: mild to moderate atopic dermatitis; type: in vivo, human
Procedure: 26 subjects having mild to moderate atopic dermatitis and about 3-70% treatable body surface area (BSA) were enrolled in the study. […] Dosing was targeted at 0.62 g/kg/day of the formulation or 6.82 mg/kg/day of Compound 1. Based on an average body weight of 60 kg, and average BSA of 1.62 m2, a recommended starting dose of 2.5 g of a formulation (for example, Formulation 1 or 4; Formulations 2, 3, 5, and 6 may be dosed higher due to the lower concentration of Compound 1) is proposed as a starting point. Severity of atopic dermatitis (vIGA-AD score), treatable BSA, and the following 11 signs and symptoms were assessed: dryness, erythema, burning/stinging, erosion/ulceration, edema/swelling, itching, pain treated area, crusting, vesiculation, flaking/scaling, and bleeding.

[5] = CETAPHIL 1 hr prior to single topical 5 mg/kg, 48 h, dosing device removed by rat, potential oral administration by grooming
[6] = CETAPHIL 1 hr prior to single topical 5 mg/kg, 48 h, dosing device removed, potential oral administration
[7] = CETAPHIL emollient 1 hr prior to single topical 5 mg/kg, 2 h
[8] = CETAPHIL emollient 1 hr prior to single topical 5 mg/kg, 8 h
[9] = single topical 5 mg/kg, without CETAPHIL, 1 h
[10] = single topical 5 mg/kg, without CETAPHIL, 1 h post-dose
[11] = single topical 5 mg/kg, without CETAPHIL, 2 h
[12] = single topical 5 mg/kg, without CETAPHIL, 2 h post-dose
[13] = single topical 5 mg/kg, without CETAPHIL, 4 h
[14] = single topical 5 mg/kg, without CETAPHIL, 4 h post-dose
[15] = single topical 5 mg/kg, without CETAPHIL, 8 h
[16] = single topical 5 mg/kg, without CETAPHIL, 8 h post-dose
[17] = single topical 5 mg/kg, without CETAPHIL, 24 h
[18] = single topical 5 mg/kg, without CETAPHIL, 24 h post-dose
[19] = single topical 5 mg/kg, without CETAPHIL, 48 h
[20] = single topical 5 mg/kg, without CETAPHIL, 48 h post-dose
[21] = at EOT or at 2-week follow-up visit

CSCC[C@@H]1NC(=O)[C@H](CC(C)C)NC(=O)[C@H](CCCCN)NC(=O)[C@H](CCC(N)=O)NC(=O)[C@H](CCCNC(=N)N)NC(=O)[C@H](CCCCN)NC(=O)[C@H](CCCNC(=N)N)NC(=O)[C@H](CCC(N)=O)NC(=O)[C@H](C(C)C)NC(=O)[C@@H](NC(=O)[C@@H]2CCCN2C(=O)[C@H](C)NC(=O)[C@H](CC(C)C)NC(=O)[C@H](CC(C)C)NC(=O)[C@H](C)NC(=O)[C@H](CC(C)C)NC(=O)[C@H](CC(C)C)NC(=O)[C@@H](NC(=O)[C@H](C)NC(=O)[C@@H]2CCCN2C(=O)[C@H](CC(C)C)NC(=O)[C@H](CC(C)C)NC(=O)[C@H](C)NC(=O)[C@@H](NC(=O)[C@H](C)NC(=O)[C@H](C)N)C(C)C)C(C)C)CSSC[C@@H](C(=O)O)NC(=O)[C@@H]2CCCN2C1=O [^3H-Compound 1] (H-AAVALLPAVLLALLAPCVQRKRQKLMPC-OH; disulfide 17-28)
Cmax, total radioactivity ([1]; Plasma, single topical 5 mg/kg): 14.53 ng/mL
Cmax, total radioactivity ([1]; Whole blood -WBC, single topical 5 mg/kg): 11.68 ng/mL
Cmax, total radioactivity ([1]; Whole blood, single topical 5 mg/kg): 2.282 ng/mL
Blood [1, 5]: 1630 ng/mL
Plasma [1, 5]: 2312 ng/mL
Non-plasma compartment [1, 6]: 19.2
Partition coefficient [1, 6]: 80.8
WBC depleted blood [1, 6]: 303.9 ng equivalents/mL
Blood [1, 7]: 4.444 ng/mL
Non-plasma compartment [1, 7]: 26.5
Partition coefficient [1, 7]: 73.5
Plasma [1, 7]: 5.443 ng/mL
WBC depleted blood [1, 7]: 2.333 ng equivalents/mL
Blood [1, 8]: 16.05 ng/mL
Non-plasma compartment [1, 8]: 21.3
Partition coefficient [1, 8]: 78.7
Plasma [1, 8]: 21.04 ng/mL
WBC depleted blood [1, 8]: 3.223 ng equivalents/mL
persistence in the blood ([1]; after a single topical administration): > 48 h
time to penetrate the skin deep enough to reach blood vessels ([1]; cream formulation, single topical administration): less than one hour
Concentration of radioactivity in recovered white blood cells ([1]; single topical 5 mg/kg, 1 h post-dose, may not represent total white blood cells): BLQ
Concentration of radioactivity in recovered white blood cells ([1]; single topical 5 mg/kg, 2 h post-dose): BLQ
Concentration of radioactivity in recovered white blood cells ([1]; single topical 5 mg/kg, 4 h post-dose): BLQ
Concentration of radioactivity in recovered white blood cells ([1]; single topical 5 mg/kg, 8 h post-dose): BLQ
Concentration of radioactivity in recovered white blood cells ([1]; single topical 5 mg/kg, 24 h post-dose): BLQ
Concentration of radioactivity in recovered white blood cells ([1]; single topical 5 mg/kg, 48 h post-dose): BLQ
Non-plasma compartment [1, 9]: 43.1
Partition coefficient [1, 9]: 56.9
Concentration of radioactivity in WBC depleted blood [1, 10]: BLQ
Concentration of radioactivity in plasma [1, 10]: 1.764 ng equivalents/mL
Concentration of radioactivity in whole blood [1, 10]: 1.923 ng equivalents/mL
Non-plasma compartment [1, 11]: 24.9
Partition coefficient [1, 11]: 75.1
Concentration of radioactivity in WBC depleted blood [1, 12]: BLQ
Concentration of radioactivity in plasma [1, 12]: 4.818 ng equivalents/mL
Concentration of radioactivity in whole blood [1, 12]: 3.850 ng equivalents/mL
Non-plasma compartment [1, 13]: 34.0
Partition coefficient [1, 13]: 66.0
Concentration of radioactivity in WBC depleted blood [1, 14]: 0.735 ng equivalents/mL
Concentration of radioactivity in plasma [1, 14]: 4.896 ng equivalents/mL
Concentration of radioactivity in whole blood [1, 14]: 4.303 ng equivalents/mL
Non-plasma compartment [1, 15]: 27.8
Partition coefficient [1, 15]: 72.2
Concentration of radioactivity in WBC depleted blood [1, 16]: 2.282 ng equivalents/mL
Concentration of radioactivity in plasma [1, 16]: 14.53 ng equivalents/mL
Concentration of radioactivity in whole blood [1, 16]: 11.68 ng equivalents/mL
Non-plasma compartment [1, 17]: 30.4
Partition coefficient [1, 17]: 69.6
Concentration of radioactivity in WBC depleted blood [1, 18]: 1.166 ng equivalents/mL
Concentration of radioactivity in plasma [1, 18]: 6.709 ng equivalents/mL
Concentration of radioactivity in whole blood [1, 18]: 5.593 ng equivalents/mL
Non-plasma compartment [1, 19]: 21.7
Partition coefficient [1, 19]: 78.3
Concentration of radioactivity in WBC depleted blood [1, 20]: 1.109 ng equivalents/mL
Concentration of radioactivity in plasma [1, 20]: 6.287 ng equivalents/mL
Concentration of radioactivity in whole blood [1, 20]: 4.978 ng equivalents/mL
partitioning among blood components ([1]; single topical dose, WBCs versus RBCs and RBC/WBC-depleted plasma): partitions to the WBCs (white blood cells) of blood preferentially

CSCC[C@@H]1NC(=O)[C@H](CC(C)C)NC(=O)[C@H](CCCCN)NC(=O)[C@H](CCC(N)=O)NC(=O)[C@H](CCCNC(=N)N)NC(=O)[C@H](CCCCN)NC(=O)[C@H](CCCNC(=N)N)NC(=O)[C@H](CCC(N)=O)NC(=O)[C@H](C(C)C)NC(=O)[C@@H](NC(=O)[C@@H]2CCCN2C(=O)[C@H](C)NC(=O)[C@H](CC(C)C)NC(=O)[C@H](CC(C)C)NC(=O)[C@H](C)NC(=O)[C@H](CC(C)C)NC(=O)[C@H](CC(C)C)NC(=O)[C@@H](NC(=O)[C@H](C)NC(=O)[C@@H]2CCCN2C(=O)[C@H](CC(C)C)NC(=O)[C@H](CC(C)C)NC(=O)[C@H](C)NC(=O)[C@@H](NC(=O)[C@H](C)NC(=O)[C@H](C)N)C(C)C)C(C)C)CSSC[C@@H](C(=O)O)NC(=O)[C@@H]2CCCN2C1=O [Compound 1] (H-AAVALLPAVLLALLAPCVQRKRQKLMPC-OH; disulfide 17-28)
dermal tolerance ([2]; male mini-pigs, 0, 0.11, 0.33, 1.1% w/w applied topically twice daily for 7 consecutive days): tolerated
no-observed-adverse-effect level (NOAEL) ([2]; male mini-pigs, highest dose tested: 0.75 grams of formulation applied twice daily for 7 days): 1.1 % w/w
early deaths (mortality) ([2]; male mini-pigs, topical 0.11, 0.33, 1.1% w/w (F3, F2, F1), 0.75 g per site twice daily for 7 days): no early deaths
clinical signs or dermal effects ([2]; male mini-pigs, topical 0.11, 0.33, 1.1% w/w, twice daily for 7 days): no clinical signs or dermal effects noted
dermal irritation ([2]; minipig, in vivo): no signs of dermal irritation
general signs of toxicity ([2]; minipig, in vivo): no general signs of toxicity
swelling and cellular infiltration in ear punch biopsies induced by PMA ([3]; 8 h post-challenge): reduced
skin wound healing and hair re-growth after repeated surgical trauma ([3]; in vivo): does not impede
inflammatory cell infiltration in skin biopsies in response to PMA ([3]; topical formulation, dose-dependent treatment): reduced
ear swelling (ear thickness of intact ears) induced by PMA ([3]; topical treatment): attenuated
11 signs and symptoms of AD scored from patient diaries ([4]; 1.1% as Formulation 4, BID for 7 days): net negative score
subjects whose vIGA-AD score worsened 2 units ([4]; at 2-week follow up): 0 subjects
subjects whose EOT vIGA-AD score worsened 1 unit ([4]; at 2-week follow up (3 subjects)): 13%
subjects with improvement in vIGA-AD scores of 2 units ([4]; at 2-week follow up (10 subjects)): 44%
subjects with 0-clear or 1-almost clear skin ([4]; at 2-week post treatment): 61%
subjects with improved vIGA-AD scores of 2 units ([4]; at EOT (6 subjects)): 26%
subjects with 0-clear or 1-almost clear vIGA-AD scores ([4]; at EOT (BID for 7 days)): 57%
patients responding (reduction in treatable BSA or decrease in vIGA-AD severity score, or both) [4, 21]: 24 of 26
reduction in size of treatable BSA in responders [4, 21]: 20-100%
adverse events (AEs) ([4]; in vivo): no adverse events
tolerability ([4]; in vivo): well tolerated
